In general, solubility refers to the concentration that dissolves in the medium under given conditions. Low readings indicate a poorly soluble substance, high ones a readily soluble substance. As a reminder, the logP is a log measure of how a compound divides between an organic and an aqueous phase.

The text below walks through data of patent US9550792B2, “Polycyclic substituted pyrazole kinase activity inhibitors and use thereof” (priority 2013, dated 2017).

SMILES strings stand for the structures. Like-named read-outs stand apart in the source and are kept apart here. Bounds are passed on as bounds.

Series [1] concerns liver cancer cell line 7721. Kind of series: Anti-tumor activity in vitro, MTT method. Format: cell-based. The settings on record: 48 h, read-out: 7721 (IC50/μM).
In series [2] the test system is colon cancer cell line HCT116. In words: Anti-tumor activity in vitro, MTT method. Format: cell-based. As to conditions: Homo sapiens, HCT-116, 48 h.
Series [3] relates to liver cancer cell line HEPG2. In words: Anti-tumor activity in vitro, MTT method. The settings on record: Homo sapiens, HepG2, 48 h, read-out: HEPG2 (IC50/μM).
Experimental: (§1) MTT method: the dehydrogenase associated with NADP in the mitochondria of living cell is capable of reducing exogenous MTT into insoluble bluish violet crystal (Formazan), which is precipitated in the cell. […] DMSO or Triple liquid (10% SDS-5% isobutanol-0.01 mol/L HCl) is used to dissolve the crystal in the cell. The OD determined at 570 nm by a microplate reader can reflect the amount of the living cell indirectly.
(§2) The crystal is dissolved with DMSO and the detection is performed on a microplate reader.
Series [4] is described as follows: Measurement of water solubility. Format: physicochemical. The settings on record: thermodynamic from solid, distilled water, 25° C. The protocol:
An excess quantity of sample was added into a 50 mL triangular flask, to which 10 mL distilled water was added, and then the flask was vibrated in a Constant Temperature Vibrator at 25° C. for 72 h. The solution was centrifuged at 10000 r/min for 15 min and then the supernatant was filtrated with […] microfiltration membrane to remove undissolved drug. 2 mL filtrate was metered with methanol to 10 ml. The content of drug was determined with 20 μL sample injection.

Series [5] deals with S180 grafting tumor. In words: Inhibition to S180 grafting tumor in animal. As to conditions: for Body weight After administration / Tumor inhibition / Tumor weight: 7 administrations; for Tumor inhibition / Tumor weight: d8. Format: in vivo, ICR mouse. The method, then:
ICR mouse was inoculated with solid tumor according to tumor grafting process (tumor piece was weighed under sterile condition, homogenized with glass tissue homogenizer, placed within a sterile container, to which was added physiological saline to prepare 1:3 cell suspension. The container was placed on ice and aspirated and the cells were mixed homogeneously before each aspiration. Each mouse was inoculated subcutaneously 0.2 mL at right fore axilla). […] The mice were administered intravenously, once a day and 7 administrations in total. The administration volume was 0.4 ml/20 g. The mice bearing tumor were sacrificed 8 days after inoculation (d8). The tumor tissue was separated and weighed. The data was analyzed with statistics method (t-test).
Dose setting: 5 groups in total.

Series [6] relates to breast cancer cell line MCF-7. In words: Anti-tumor activity in vitro, MTT method. As to conditions: Homo sapiens, MCF7, 48 h, read-out: MCF7 (IC50/μM).
Experimental: as §1, §2
For series [7], the system named is stomach cancer cell line MGC803. Kind of series: Anti-tumor activity in vitro, MTT method. As to conditions: Homo sapiens, MGC-803, 48 h, read-out: MGC803 (IC50/μM). (In general: Tetrazolium assays rely on reduction of a dye to a coloured formazan, in cell work by metabolically active cells.)
Experimental: as §1, §2
Series [8] deals with lung cancer cell line A549. In words: Anti-tumor activity in vitro, MTT method. The settings on record: Homo sapiens, A549, 48 h, read-out: A549 (IC50/μM).
Experimental: as §1, §2
Series [9] deals with breast cancer cell line MDA231. Kind of series: Anti-tumor activity in vitro, MTT method. As to conditions: Homo sapiens, MDA-MB-231, 48 h, read-out: MDA231 (IC50/μM).
Experimental: as §1, §2
Series [10] relates to leukemia cell line K562. Kind of series: Anti-tumor activity in vitro, MTT method. As to conditions: Homo sapiens, K562, 48 h, read-out: K562 (IC50/μM).
Experimental: as §1, §2
Series [11] concerns stomach cancer cell line BSG823. Kind of series: Anti-tumor activity in vitro, MTT method. The settings on record: 48 h, read-out: BSG823 (IC50/μM).
Experimental: as §1, §2
Series [12] has as its system resistant breast cancer cell line MCF-7. In words: Anti-tumor activity in vitro, MTT method. The settings on record: Homo sapiens, MCF7, 48 h, read-out: Resistant MCF7 (IC50/μM).
Experimental: as §1, §2
A short description of series [13]: Measurement of lipid-water partition coefficient (Log P). As to conditions: n-octanol/distilled water, 25° C. Format: physicochemical. The protocol: n-octanol and distilled water were allowed to saturate each other for 24 h. An amount of the sample was weighed accurately into a 50 mL volumetric flask and metered with n-octanol that was saturated with water (the sample was dissolved completely). A 10 mL solution of the sample in n-octanol was placed in a 50 mL triangular flask, to which was added 10 mL distilled water which was saturated with n-octanol. The mixture was equilibrated (125 rpm, 72 h) at 25° C. with a constant temperature vibrator. The lipid-water partition coefficient was calculated by the concentrations of the drug in the n-octanol stock solution before the experiment and in the n-octanol layer after experiment.

Series [14] concerns leukemia cell line NB4. In words: Anti-tumor activity in vitro, MTT method. As to conditions: 48 h, read-out: NB4 (IC50/μM).
Experimental: as §1, §2
Series [15] deals with umbilical cord vein endothelium cell line HUVEC. Kind of series: Anti-tumor activity in vitro, MTT method. The settings on record: Homo sapiens, 48 h, read-out: HUVEC (IC50/μM).
Experimental: as §1, §2
[16] abbreviates: 7.5 mg/kg intravenously once a day.
Setting [17] is: 15 mg/kg intravenously once a day.
Where [18] appears, read: 30 mg/kg intravenously once a day.

`CN1CCN(Cc2ccc(NC(=O)c3n[nH]cc3Nc3ncnc4occc34)cc2)CC1` [Compound I-21, 4-(4-furo[2,3-d]pyrimidinylamino)-N-(4-((4-methyl-1-piperazinyl)methyl)phenyl)-1H-3-pyrazolecarboxamide]: the IC50 in [1] is 17.4 µM; in series [2] (read-out: HCT-116 (IC50/μM)), 9.58 µM.
Turning to `CN1CCN(Cc2ccc(NC(=O)c3n[nH]cc3Nc3ncnc4sccc34)cc2)CC1` [Compound I-1, 4-(4-thieno[2,3-d]pyrimidinylamino)-N-(4-((4-methyl-1-piperazinyl)methyl)phenyl)-1H-3-pyrazole carboxamide], the IC50 turned out to be 25.2 µM in series [3]; 0.42 µM in series [6]; 2.27 µM in series [7]; 6.23 µM in [1]; 50.3 µM in [8]; 5.45 µM in series [9]. Further, the IC50 in series [10] was 3.2 µM; in series [11] it was 20.7 µM; in [12], 3.73 µM; in series [2] (read-out: HCT116 (IC50/μM)), 0.25 µM; in series [2] (read-out: HCT-116 (IC50/μM)), 0.13 µM; in [14] it was 0.74 µM. Besides, the IC50 in [15] amounted to 2.54 µM. This compound also registered a solubility at 72 h in series [4] of less than 0.1 µg/mL. For the same compound, the “Body weight After administration” value worked out at 24.00 ± 0.75 g in series [5] (setting [16]), 20.00 ± 1.94 g in series [5] (setting [17]) and 20.43 ± 3.20 g in series [5] (setting [18]). Besides, the Tumor inhibition in series [5] (setting [16]) amounted to 36.94%; in series [5] (setting [17]) it was 45.2%; in series [5] (setting [18]) it was 55.5%. The values for the Tumor weight in series [5] (setting [16]), in [5] (setting [17]) and in [5] (setting [18]) were 0.74 ± 0.19 g, 0.63 ± 0.11 g and 0.52 ± 0.25 g, respectively. Besides, the “effect on S180 tumor growth compared to the model control group (in words)” value in series [5] (7.5 mg/kg, P<0.05) is on record as “significant inhibitory effect”; in [5] (30 mg/kg and 15 mg/kg, P<0.01), “very significant inhibitory effect”. Also, the “effect on the body weight of experimental animals (in words)” value in series [5] (30 mg/kg and 15 mg/kg, P<0.05) was “significant inhibitory effect on the body weight”. The compound also returned a lipophilicity (logP) at 72 h in series [13] of 1.27.
Consider `O=C(Nc1ccc(CN2CCOCC2)cc1)c1n[nH]cc1Nc1ncnc2sccc12` [Compound I-2, 4-(4-thieno[2,3-d]pyrimidinylamino)-N-(4-((4-morpholinyl)methyl)phenyl)-1H-3-pyrazolecarboxamide], for which the solubility at 72 h in series [4] was less than 0.08 µg/mL. The same compound returned a logP at 72 h in series [13] of 1.28.
